Data reported in patent publication US10081632B2, “Substituted tetrahydropyrido[3′,2′:4,5]pyrrolo[1,2-α]pyrazine-2-carboxamides as RSK inhibitors” (Phoenix Molecular Designs, priority 2016, dated 2018).

Experiments:
[1] = tested on: HCC1937 cells; experiment: Monolayer growth inhibition, crystal violet assay; type: cell-based; conditions: Homo sapiens, HCC1937, HCC1937 (TNBC, BRCA Mutant), 5 days, single dose on day 1
Source text: (§1) In all instances a single dose was given on day 1 of the experiment. […] Complete (100%) growth suppression was achievable with several of the compounds in multiple different cell lines.

[2] = tested on: JIMT-1 cells; experiment: Monolayer growth inhibition, crystal violet assay; type: cell-based; conditions: Homo sapiens, JIMT-1, JIMT-1 (HER2), 5 days, single dose on day 1
Source text: as §1

[3] = tested on: MDA-MB-468 cells; experiment: Monolayer growth inhibition, crystal violet assay; type: cell-based; conditions: Homo sapiens, MDA-MB-468, MDA-MB-468 (TNBC), 5 days, single dose on day 1
Source text: as §1

[4] = tested on: T47D cells; experiment: Monolayer growth inhibition, crystal violet assay; type: cell-based; conditions: Homo sapiens, T47D, T47D (ER/PR), 5 days, single dose on day 1
Source text: as §1

[5] = tested on: JIMT-1 cells; experiment: Immuno-oncology gene expression (HLA-DRA, CIITA, CD274 mRNA); type: cell-based, Human
Source text: (§2) A key feature of cancer is low immunogenicity. This can occur by several mechanisms that allow the cells to escape immune recognition. […] HLA-DRA is a member of MHC-II genes and CIITA is the master regulator of MHC II transcription. Thus it was surprising that CIITA, which would be expected to regulate MHC II gene expression, was not altered by RSK inhibition. […] HLA-DRA is important for immune recognition while PD-L1 is involved in immune checkpoints.

[6] = tested on: MDA-MB-231 cells; experiment: as above; type: cell-based, Human; conditions: Compound 16 2 or 4 uM, Compound 18 1, 2, or 4 uM
Source text: as §2

Compound: C[C@@H]1CNC(=O)c2cc3ccc(C(=O)Nc4cnn(Cc5ccc(N)cc5)c4)nc3n21 [Compound 18, (R)—N-(1-(4-aminobenzyl)-1H-pyrazol-4-yl)-9-methyl-6-oxo-6,7,8,9-tetrahydropyrido[3′,2′:4,5]pyrrolo[1,2-a]pyrazine-2-carboxamide]
- IC50 [1]: 7.7 ± 3.5 µM
- IC50 [2]: 11.1 ± 0.5 µM
- IC50 [3]: 2.3 ± 0.9 µM
- IC50 [4]: 2.2 ± 0.8 µM
- HLA-DRA mRNA [5]: elevated levels of HLA-DRA mRNA
- mRNA expression of CIITA [5]: little effect
- CD274 (gene encoding PD-L1) levels ([5]; 1-20 uM): inhibited CD274
- CD274 (gene encoding PD-L1) levels [6]: reduced levels of CD274
- HLA-DRA mRNA [6]: elevated levels of HLA-DRA mRNA
- mRNA expression of CIITA [6]: little effect
